Assay results as given in patent publication US11382956B2, “Amylin analogues” (Zealand Pharma A/S, priority 2016, dated 2022).
Numbered stars: 1 amine (or outer) side, 2 acyl side, 3 side chain; on linkers, the order of the positions; unused ones are H or OH. Bridge positions count the residues as written; N and C are the ends. Square brackets hold non-standard residues; d marks the D form. Peptide text beside a SMILES is read from it. * marks the point of attachment. C20 diacid = O=C(O)CCCCCCCCCCCCCCCCCCC(=O)*; γGlu = O=C(O)[C@H](CCC(=O)[*:2])N[*:1]; Hyp = O=C(O)[C@@H]1C[C@@H](O)CN1; NMeI = CC[C@H](C)[C@H](NC)C(=O)O; Aad = N[C@@H](CCCC(=O)O)C(=O)O; Sar = CNCC(=O)O

Columns and labels:
[1] = molecular target: T1, recombinant human calcitonin receptor (hCT-R) (Homo sapiens, UniProt P30988); experiment: hCT-R cAMP assay (AlphaScreen) in 1321N1 cells; format: cell-based; conditions: cAMP formation, 45 min stimulation
T1 construct: host or cells: human astrocytoma cell line 1321N1
T1 sequence (P30988 25-474): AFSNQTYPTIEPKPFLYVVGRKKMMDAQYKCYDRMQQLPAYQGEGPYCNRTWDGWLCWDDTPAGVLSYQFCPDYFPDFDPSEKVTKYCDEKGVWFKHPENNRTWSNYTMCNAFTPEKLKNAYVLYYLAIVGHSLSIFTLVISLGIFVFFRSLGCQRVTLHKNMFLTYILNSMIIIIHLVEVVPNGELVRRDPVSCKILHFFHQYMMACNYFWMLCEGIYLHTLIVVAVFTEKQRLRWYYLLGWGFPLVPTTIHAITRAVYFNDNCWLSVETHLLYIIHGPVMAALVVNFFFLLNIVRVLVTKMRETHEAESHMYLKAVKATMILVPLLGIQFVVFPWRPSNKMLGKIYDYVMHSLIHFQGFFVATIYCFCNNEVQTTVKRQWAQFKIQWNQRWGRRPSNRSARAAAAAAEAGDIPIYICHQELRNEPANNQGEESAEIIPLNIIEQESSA
Method in brief: (§1)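 1321N1 astrocytoma cells expressing recombinant human calcitonin receptor alone or with RAMP3 (AMY3) stimulated 45 min at room temperature with peptide in IBMX-containing buffer. cAMP quantified by AlphaScreen after 1 h bead incubation; EC50 fitted from at least 7 concentrations.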

[2] = molecular target: T2, recombinant human amylin 3 receptor (hAMYR3) (Homo sapiens, UniProt O60896+P30988); experiment: hAMYR3 cAMP assay (AlphaScreen) in 1321N1 cells; format: cell-based; conditions: cAMP formation, 45 min stimulation
T2 construct: host or cells: human astrocytoma cell line 1321N1
T2 sequence (P30988 25-474): T1 sequence (P30988 25-474)
T2 sequence (O60896 24-148 partner): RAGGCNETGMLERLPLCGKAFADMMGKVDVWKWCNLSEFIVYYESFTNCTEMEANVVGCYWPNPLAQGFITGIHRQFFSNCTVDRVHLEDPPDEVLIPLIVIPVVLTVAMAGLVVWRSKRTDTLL
Method in brief: as §1

[3] = Assessment of physical stability: fibril formation by Thioflavin T fluorescence; format: physicochemical; parameters: key: FND = fibrillation not detected; FD = fibrillation detected; conditions: 1 mg/mL peptide; for Fibrillation (in buffer) pH4 acetate: 50 mM acetate buffer pH 4.0, 96 hours at 40° C.; for Fibrillation (in buffer) pH7 histidine: 50 mM histidine buffer pH 7.0, 96 hours at 40° C.; for Fibrillation (in buffer) pH7 phosphate: 50 mM phosphate buffer pH 7.0, 96 hours at 40° C.
Method in brief: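 Test peptide at 1 mg/mL with 40 μM ThT in 50 mM phosphate pH 7.0, 50 mM histidine pH 7.0, or 50 mM acetate pH 4.0, in triplicate. Fluorescence read every 10 min after 300 s agitation for 96 hours at 40° C; significant intensity rise scored as fibrillation detected (FD).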

[4] = Assessment of chemical stability in 40 mM buffers at 40° C. (RP-HPLC); format: physicochemical; conditions: 1 mg/mL; for % degradation after 72 h at 40° C. pH4 acetate: acetate buffer pH 4, 72 h; for % degradation after 72 h at 40° C. pH6 phosphate: phosphate buffer pH 6, 72 h; for % degradation after 72 h at 40° C. pH7 phosphate: phosphate buffer pH 7, 72 h; for % degradation after 14 days at 40° C. pH6 phosphate: phosphate buffer pH 6, 14 days; for % degradation after 14 days at 40° C. pH7 phosphate: phosphate buffer pH 7, 14 days
Method in brief: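 Peptides at 1 mg/mL in 40 mM acetate pH 4 or phosphate pH 6 and 7 were held at 40° C for 3 and 14 days. Main-peak area-% by C8 RP-HPLC, UV 220 nm; % degradation = change in main-peak area-% versus t=0.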

[5] = Effect on acute food intake and body weight in normal Sprague Dawley rats; format: in vivo, Sprague Dawley (SD) rats; conditions: Dose: 30 nmol/kg sc, vehicle-corrected
Excerpt: Sprague Dawley (SD) rats were obtained from Janvier Labs, France. The animals arrived at least 14 days before the study start to allow acclimatization to experimental conditions. From arrival and throughout the study, the rats were housed in groups of 2 to 4 (n=2-4) in a light-, temperature- and humidity-controlled room. Animals had access ad libitum to food (KLIBA 3430, Provimi Kliba AG, Switzerland) and water (domestic quality tap water) during the entire study. Per group 6-8 rats were included. A vehicle group and positive control group were included in each set of tests. […] Dosing volume was 2 ml/kg. Food intake was recorded online using an automated food intake system (HM02, MBRose, Denmark) for 4 days or manually at 0 h for a predose and then 24, 48, 72 and 96 h post dosing. Body weight was measured daily.
Statistical analyses were performed using GraphPad™ Prism version 7. The measured parameters were compared using two-way ANOVA followed by Dunnett's multiple comparison tests. Differences were considered statistically significant at p<0.05.

EC50 [1] [nM]	EC50 [2] [nM]	Fibrillation (in buffer) pH4 acetate [3]	Fibrillation (in buffer) pH7 histidine [3]	Fibrillation (in buffer) pH7 phosphate [3]	% degradation after 72 h at 40° C. pH4 acetate [4] [%]	% degradation after 72 h at 40° C. pH6 phosphate [4] [%]	% degradation after 72 h at 40° C. pH7 phosphate [4] [%]	% degradation after 14 days at 40° C. pH4 acetate ([4]; acetate buffer pH 4, 14 days) [%]	% degradation after 14 days at 40° C. pH6 phosphate [4] [%]	% degradation after 14 days at 40° C. pH7 phosphate [4] [%]	Structure (SMILES)	Body weight reduction in % at 48 h [5] [%]	Food intake reduction in % at 48 h [5] [%]
0.028	0.008	FD	FND	FND	1.1	<1	<1				CC[C@H](C)[C@@H](C(=O)N[C@@H](CC(C)C)C(=O)N[C@@H](CO)C(=O)N[C@@H](CO)C(=O)N[C@H](C(=O)N[C@@H](CCC(=O)O)C(=O)N[C@H](C(=O)NCC(=O)N[C@@H](CO)C(=O)N[C@@H](CC(N)=O)C(=O)N[C@H](C(=O)N1C[C@H](O)C[C@H]1C(N)=O)[C@@H](C)O)C(C)C)[C@@H](C)O)N(C)C(=O)[C@H](C)NC(=O)CN(C)C(=O)[C@H](Cc1ccccc1)NC(=O)[C@H](CO)NC(=O)[C@H](CO)NC(=O)[C@H](CCCNC(=N)N)NC(=O)[C@H](CCC(N)=O)NC(=O)[C@H](CC(C)C)NC(=O)[C@H](Cc1ccccc1)NC(=O)[C@H](CCCC(=O)O)NC(=O)[C@H](C)NC(=O)[C@H](CC(C)C)NC(=O)[C@H](CCCNC(=N)N)NC(=O)[C@H](CCC(N)=O)NC(=O)[C@@H](NC(=O)[C@H](C)NC(=O)[C@@H]1CCCCNC(=O)C[C@H](NC(=O)[C@H](CCCNC(=N)N)NC(=O)CC[C@H](NC(=O)CCCCCCCCCCCCCCCCCCC(=O)O)C(=O)O)C(=O)NCC(=O)N[C@@H]([C@@H](C)O)C(=O)N[C@@H](C)C(=O)N[C@@H]([C@@H](C)O)C(=O)N1)[C@@H](C)O [Compound 40, [19CD]-isoGlu-RD()GTATK()ATQRLA-Aad-FLQRSSF-Gly(Me)-A-Ile(Me)-LSSTEVGSNT-Hyp-NH2] ({C20 diacid-γGlu}-RDGTATKATQRLA[Aad]FLQRSSF[Sar]A[NMeI]LSSTEVGSNT[Hyp]-NH2; lactam 2-7)	7.3	83
0.095	0.024	FND	FND	FND	<1	<1	<1	1.1	<1	<1	CC[C@H](C)[C@@H](C(=O)N[C@@H](CC(C)C)C(=O)N[C@@H](CO)C(=O)N[C@@H](CO)C(=O)N[C@H](C(=O)N[C@@H](CCC(=O)O)C(=O)N[C@H](C(=O)NCC(=O)N[C@@H](CO)C(=O)N[C@@H](CC(N)=O)C(=O)N[C@H](C(=O)N1C[C@H](O)C[C@H]1C(N)=O)[C@@H](C)O)C(C)C)[C@@H](C)O)N(C)C(=O)[C@H](C)NC(=O)CN(C)C(=O)[C@H](Cc1ccccc1)NC(=O)[C@H](CO)NC(=O)[C@H](CO)NC(=O)[C@H](CCCNC(=N)N)NC(=O)[C@H](CCC(N)=O)NC(=O)[C@H](CC(C)C)NC(=O)[C@H](Cc1ccccc1)NC(=O)[C@H](CC(=O)O)NC(=O)[C@H](C)NC(=O)[C@H](CC(C)C)NC(=O)[C@H](CCCNC(=N)N)NC(=O)[C@H](CCC(N)=O)NC(=O)[C@@H](NC(=O)[C@H](C)NC(=O)[C@@H]1CCCCNC(=O)C[C@H](NC(=O)[C@H](CCCNC(=N)N)NC(=O)CC[C@H](NC(=O)CCCCCCCCCCCCCCCCCCC(=O)O)C(=O)O)C(=O)NCC(=O)N[C@@H]([C@@H](C)O)C(=O)N[C@@H](C)C(=O)N[C@@H]([C@@H](C)O)C(=O)N1)[C@@H](C)O [Compound 41, [19CD]-isoGlu-RD()GTATK()ATQRLADFLQRSSF-Gly(Me)-A-Ile(Me)-LSSTEVGSNT-Hyp-NH2] ({C20 diacid-γGlu}-RDGTATKATQRLADFLQRSSF[Sar]A[NMeI]LSSTEVGSNT[Hyp]-NH2; lactam 2-7)	11	75
0.116	0.031	FD	FND	FND		<1	3.0		<1	<1	CC[C@H](C)[C@@H](C(=O)N[C@@H](CC(C)C)C(=O)N[C@@H](CO)C(=O)N[C@@H](CO)C(=O)N[C@H](C(=O)N[C@@H](CCC(=O)O)C(=O)N[C@H](C(=O)NCC(=O)N[C@@H](CO)C(=O)N[C@@H](CC(N)=O)C(=O)N[C@H](C(=O)N1C[C@H](O)C[C@H]1C(N)=O)[C@@H](C)O)C(C)C)[C@@H](C)O)N(C)C(=O)[C@H](C)NC(=O)CN(C)C(=O)[C@H](Cc1ccccc1)NC(=O)[C@H](CO)NC(=O)[C@H](CO)NC(=O)[C@H](CCCNC(=N)N)NC(=O)[C@H](CCC(N)=O)NC(=O)[C@H](CC(C)C)NC(=O)[C@H](Cc1ccccc1)NC(=O)[C@H](CCCC(=O)O)NC(=O)[C@H](C)NC(=O)[C@H](CC(C)C)NC(=O)[C@H](CCCNC(=N)N)NC(=O)[C@H](CCC(=O)O)NC(=O)[C@@H](NC(=O)[C@H](C)NC(=O)[C@@H]1CCCCNC(=O)C[C@H](NC(=O)[C@H](CCC(=O)O)NC(=O)CC[C@H](NC(=O)CCCCCCCCCCCCCCCCCCC(=O)O)C(=O)O)C(=O)NCC(=O)N[C@@H]([C@@H](C)O)C(=O)N[C@@H](C)C(=O)N[C@@H]([C@@H](C)O)C(=O)N1)[C@@H](C)O [Compound 37, [19CD]-isoGlu-ED()GTATK()ATERLA-Aad-FLQRSSFGly(Me)-A-Ile(Me)-LSSTEVGSNT-Hyp-NH2] ({C20 diacid-γGlu}-EDGTATKATERLA[Aad]FLQRSSF[Sar]A[NMeI]LSSTEVGSNT[Hyp]-NH2; lactam 2-7)	4.3	24
0.232	0.122	FD	FND	FND							CC[C@H](C)[C@@H](C(=O)N1CCC[C@H]1C(=O)N[C@@H](CO)C(=O)N[C@@H](CO)C(=O)N[C@H](C(=O)N[C@@H](CCC(=O)O)C(=O)N[C@H](C(=O)NCC(=O)N[C@@H](CO)C(=O)N[C@@H](CC(N)=O)C(=O)N[C@H](C(=O)N1C[C@H](O)C[C@H]1C(N)=O)[C@@H](C)O)C(C)C)[C@@H](C)O)N(C)C(=O)[C@H](C)NC(=O)CN(C)C(=O)[C@H](Cc1ccccc1)NC(=O)[C@H](CO)NC(=O)[C@H](CO)NC(=O)[C@H](CCCNC(=N)N)NC(=O)[C@H](CCC(N)=O)NC(=O)[C@H](CC(C)C)NC(=O)[C@H](Cc1ccccc1)NC(=O)[C@H](CCCC(=O)O)NC(=O)[C@H](C)NC(=O)[C@H](CC(C)C)NC(=O)[C@H](CCCNC(=N)N)NC(=O)[C@H](CCC(=O)O)NC(=O)[C@@H](NC(=O)[C@H](C)NC(=O)[C@@H]1CCCCNC(=O)C[C@H](NC(=O)[C@H](CCC(=O)O)NC(=O)CC[C@H](NC(=O)CCCCCCCCCCCCCCCCCCC(=O)O)C(=O)O)C(=O)NCC(=O)N[C@@H]([C@@H](C)O)C(=O)N[C@@H](C)C(=O)N[C@@H]([C@@H](C)O)C(=O)N1)[C@@H](C)O [Compound 30, [19CD]-isoGlu-ED()GTATK()ATERLA-Aad-FLQRSSF-Gly(Me)-A-Ile(Me)-PSSTEVGSNT-Hyp-NH2] ({C20 diacid-γGlu}-EDGTATKATERLA[Aad]FLQRSSF[Sar]A[NMeI]PSSTEVGSNT[Hyp]-NH2; lactam 2-7)	0	<20
